How the values were obtained:
Assay in all cases: Michaelis-Menten halogenation kinetics
[1] = tested on: O=c1cc(-c2ccccc2)oc2cc(O)ccc12; type: biochemical, Floropilus chiversii; details: kinetic assay conditions in supplement (Figures S4-S10)
From the text: (§1) Michaelis-Menten halogenation kinetics on RadH

[2] = target: T1, RadH (Floropilus chiversii, UniProt C5H881); type: biochemical; details: kinetic assay conditions in supplement (Figures S4-S10)
T1 construct: recombinant, overproduced in E. coli, purified
From the text: as §1

[3] = target: T2, RadH (Floropilus chiversii, UniProt C5H881, D465E/T501S); type: biochemical; details: kinetic assay conditions in supplement (Figures S4-S10); table prints D456E/T501S, text prints D465E/T501S throughout
T2 construct: recombinant, overproduced in E. coli, purified
From the text: as §1

[4] = table prints D456E/T501S, text prints D465E/T501S throughout

T2 sequence (C5H881 whole entry D465E/T501S): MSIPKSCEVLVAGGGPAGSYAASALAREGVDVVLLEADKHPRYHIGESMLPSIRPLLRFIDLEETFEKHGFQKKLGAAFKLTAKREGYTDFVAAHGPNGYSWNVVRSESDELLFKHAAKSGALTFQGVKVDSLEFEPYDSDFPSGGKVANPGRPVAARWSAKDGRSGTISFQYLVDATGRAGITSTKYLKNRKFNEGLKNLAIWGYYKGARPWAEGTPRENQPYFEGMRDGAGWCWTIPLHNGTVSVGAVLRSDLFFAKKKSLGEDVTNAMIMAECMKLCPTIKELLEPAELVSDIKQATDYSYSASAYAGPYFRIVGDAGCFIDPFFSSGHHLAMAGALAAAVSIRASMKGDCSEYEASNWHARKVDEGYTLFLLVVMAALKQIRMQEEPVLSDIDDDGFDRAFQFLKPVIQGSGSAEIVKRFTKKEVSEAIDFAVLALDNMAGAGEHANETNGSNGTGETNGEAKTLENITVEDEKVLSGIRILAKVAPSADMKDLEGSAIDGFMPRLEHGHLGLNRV
T1 sequence (C5H881 whole entry): as the sequence (C5H881 whole entry D465E/T501S) above, with E465D, S501T counted along it

| Km [2] | Km [3] | Molecule | further results |
| --- | --- | --- | --- |
| – | – | RadH (Floropilus chiversii; D465E/T501S) | Km [1, 4]: 383 ± 4 µM; kcat [1, 4]: 0.000517 ± 3.33e-05 s⁻¹; kcat/Km [1, 4]: 1.35 ± 0.0833 M⁻¹ s⁻¹ |
| 364 ± 18 µM | – | Cc1cc(=O)oc2cc(O)ccc12 [compound 11, 11] | – |
| – | – | RadH (Floropilus chiversii) | Km [1]: 347 ± 2 µM; kcat [1]: 0.000533 ± 5e-05 s⁻¹; kcat/Km [1]: 1.53 ± 0.15 M⁻¹ s⁻¹ |
| 379 ± 5 µM | 465 ± 4 µM | O=c1ccc2ccc(O)cc2o1 [compound 8, 7-hydroxycoumarin] | – |
| 309 ± 19 µM | – | O=c1cc(C(F)(F)F)c2ccc(O)cc2o1 [compound 10, 10] | – |
| 281 ± 2 µM | 315 ± 1 µM | O=c1c(-c2ccc(O)cc2)coc2cc(O)ccc12 [compound 14, 14] | – |
| 277 ± 3 µM | 268 ± 10 µM | Oc1ccc2cnccc2c1 [compound 6, 6-hydroxyisoquinoline] | – |

Source: publication PMC5637929, “RadH: A Versatile Halogenase for Integration into Synthetic Pathways” (Angewandte Chemie (International Ed. in English), 2017)
